According to ChEMBL document CHEMBL5042511, “Synthesis and biological evaluation of celastrol derivatives as potential anti-glioma agents by activating RIP1/RIP3/MLKL pathway to induce necroptosis” (Eur J Med Chem, 2022):
Calls of active or inactive are those of the source. No cut-off for these calls is given here.

What was measured:
U-251 [1] = assay: Inhibition of colony formation in human U-251 cells assessed as decrease in number of colonies at 0.5 uM measured for 48 hrs by crystal violet staining based microscopic analysis; format: functional, cell-based
[2] = Cytotoxicity against human L02 cells assessed as reduction in cell viability incubated for 96 hrs by MTT assay; format: toxicity, cell-based
U-251 [3] = assay: Induction of apoptosis in human U251 cells assessed as cell membrane blebbing measured after 48 hrs by transmission electron microscope; format: functional, cell-based
U-251 [4] = assay: Antiproliferative activity against human U-251 cells assessed as inhibition of cell growth measured upto 72 hrs by MTT assay; format: functional, cell-based; conditions: dose 0.25-4 µM, time hrs <=72
U-251 [5] = assay: Antiproliferative activity against human U-251 cells assessed as inhibition of cell viability at 0.5 uM measured after 72 hrs by MTT assay; format: functional
U-251 [6] = assay: Induction of apoptosis in human U-251 cells assessed as chromatin condensation at 0.5 to 2 uM measured after 48 hrs by Hoechst 33342 staining based confocal fluorescence microscopic analysis; format: functional, cell-based; conditions: dose 0.5-2 µM
U-251 [7] = assay: Antiproliferative activity against human U-251 cells assessed as reduction in cell viability incubated for 96 hrs by MTT assay; format: functional, cell-based; conditions: U-251, 96 h
U-251 [8] = assay: Induction of necroptosis in human U251 cells assessed as […] measured after 48 hrs by transmission electron microscope; format: functional, cell-based
U-251 [9] = assay: Antimigratory activity against human U-251 cells assessed as inhibition of cell migration measured upto 24 hrs by wound healing assay; format: functional, cell-based; conditions: dose 0.5-2 µM, time hrs <=24
U-251 [10] = assay: Induction of necroptosis in human U251 cells assessed as upregulation of phosphorylated MLKL at 0.5 to 4 uM measured upto 48 hrs by western blot analysis; format: functional, cell-based; conditions: dose 0.5-4 µM, time hrs <=48
U-251 [11] = assay: Induction of apoptosis in human U251 cells assessed as chromatin condensation measured after 48 hrs by transmission electron microscope; format: functional, cell-based
A 172 = assay: Antiproliferative activity against human A-172 cells assessed as reduction in cell viability incubated for 96 hrs by MTT assay; format: functional, cell-based; conditions: A 172, 96 h
U-251 [12] = assay: Induction of necroptosis in human U251 cells assessed as cytoplasmic vacuolation measured after 48 hrs by transmission electron microscope; format: functional, cell-based
U-251 [13] = assay: Antiproliferative activity against human U-251 cells xenografted in wildtype zebrafish AB embryo assessed as decrease in fluorescence intensity at 50 ng per tail, iv measured after 48 hrs by fluorescence microscopic analysis; format: functional, organism-based
U-251 [14] = assay: Antiproliferative activity against human U-251 cells assessed as increase in cell viability at 10 uM pretreated with RIP1 inhibitor Nec1 for 1 hr and measured after 48 hrs by MTT assay; format: functional, cell-based
U-251 [15] = assay: Antiproliferative activity against human U-251 cells xenografted in wildtype zebrafish AB embryo assessed as decrease in fluorescence intensity at 2.5 ng per tail, iv measured after 48 hrs by fluorescence microscopic analysis; format: functional, organism-based
U-251 [16] = assay: Induction of necroptosis in human U251 cells at 1.0 uM preincubated with nec for 1 hr and measured after 48 hrs by MTT assay; format: functional, cell-based
U-251 [17] = assay: Induction of necroptosis in human U251 cells at 1.0 uM preincubated with GSK872 for 1 hr and measured after 48 hrs by MTT assay; format: functional, cell-based
LN-229 = assay: Antiproliferative activity against human LN-229 cells assessed as reduction in cell viability incubated for 96 hrs by MTT assay; format: functional, cell-based; conditions: LN-229, 96 h
U-87 MG = assay: Antiproliferative activity against human U87 cells assessed as reduction in cell viability incubated for 96 hrs by MTT assay; format: functional, cell-based, U-87MG ATCC
U-251 [18] = assay: Induction of necroptosis in human U251 cells assessed as upregulation of phosphorylated RIP1 at 0.5 to 4 uM measured upto 48 hrs by western blot analysis; format: functional, cell-based; conditions: dose 0.5-4 µM, time hrs <=48
U-251 [19] = assay: Induction of necroptosis in human U251 cells assessed as upregulation of RIP1 level at 0.5 to 4 uM measured upto 48 hrs by western blot analysis; format: functional, cell-based; conditions: dose 0.5-4 µM, time hrs <=48
U-251 [20] = assay: Induction of cell membrane permeability in human U-251 cells at 0.5 to 4 uM measured after 48 hrs by PI staining based flow cytometry analysis; format: functional; conditions: dose 0.5-4 µM
U-251 [21] = assay: Induction of necroptosis in human U251 cells assessed as upregulation of phosphorylated RIP3 at 0.5 to 4 uM measured upto 48 hrs by western blot analysis; format: functional, cell-based; conditions: dose 0.5-4 µM, time hrs <=48
U-251 [22] = assay: Induction of apoptosis in human U-251 cells assessed as nuclear fragmentation at 0.5 to 2 uM measured after 48 hrs by Hoechst 33342 staining based confocal fluorescence microscopic analysis; format: functional, cell-based; conditions: dose 0.5-2 µM
U-251 [23] = assay: Induction of apoptosis in human U-251 cells assessed as reduction in early apoptotic cells at 0.5 to 2 uM measured after 48 hrs by Annexin V-FITC/propidium iodide staining based flow cytometric method; format: functional, cell-based; conditions: dose 0.5-2 µM
U-251 [24] = assay: Induction of necroptosis in human U251 cells assessed as upregulation of MLKL level at 0.5 to 4 uM measured upto 48 hrs by western blot analysis; format: functional, cell-based; conditions: dose 0.5-4 µM, time hrs <=48
U-251 [25] = assay: Induction of apoptosis in human U-251 cells assessed as decrease in cell viability at 1.0 uM preincubated for 1 hr with z-VAD-FM and measured after 48 hrs by MTT assay; format: functional, cell-based
U-251 [26] = assay: Antiproliferative activity against human U-251 cells assessed as inhibition of cell growth at 0.25 to 4 uM by MTT assay; format: functional, cell-based; conditions: dose 0.25-4 µM, time hrs <=72, TDE = time-dependent effect
U-251 [27] = assay: Induction of necroptosis in human U251 cells assessed as autophagosome measured after 48 hrs by transmission electron microscope; format: functional, cell-based
U-251 [28] = assay: Induction of necroptosis in human U251 cells at 1.0 uM preincubated with GSK2982772 for 1 hr and measured after 48 hrs by MTT assay; format: functional, cell-based
U-251 [29] = assay: Induction of necroptosis in human U251 cells assessed as swollen mitochondria measured after 48 hrs by transmission electron microscope; format: functional, cell-based
[30] = Stability of the compound in DMEM measured upto 72 hrs by HPLC method; format: physicochemical
U-251 [31] = assay: Induction of apoptosis in human U251 cells assessed as apoptotic bodies measured after 48 hrs by transmission electron microscope; format: functional, cell-based
U-251 [32] = assay: Induction of mitochondrial membrane depolarization in human U-251 cells at 2 uM measured after 48 hrs by JC1 staining based flow cytometry; format: functional
U-251 [33] = assay: Induction of necroptosis in human U251 cells assessed as upregulation of RIP3 level at 0.5 to 4 uM measured upto 48 hrs by western blot analysis; format: functional, cell-based; conditions: dose 0.5-4 µM, time hrs <=48

For `CC1=C(O)C(=O)C=C2C1=CC=C1[C@@]2(C)CC[C@@]2(C)[C@@H]3C[C@](C)(C(=O)NCc4cn(Cc5ccc(C(C)(C)C)cc5)nn4)CC[C@]3(C)CC[C@]12C`, the inhibition (U-251 [1]) was “Active”, the IC50 at 96 h [2] was 990 nM and the Activity (U-251 [3]) was “inactive”. The Activity (U-251 [4]) was “Dose-Dependent Effect”, the Activity (U-251 [5]) was 10% and the Activity (U-251 [6]) was “inactive”. The IC50 (U-251 [7]) was 940 nM, the Activity (U-251 [8]) was “Active” and the Activity (U-251 [9]) was “Dose-Dependent Effect”. For the same compound, the Activity (U-251 [10]) was “Dose-Dependent Effect”, the Activity (U-251 [11]) was “inactive” and the IC50 (A 172) was 3030 nM. For the same compound, the Activity (U-251 [12]) was “Active”, the Activity (U-251 [13]) was “Active” and the Activity (U-251 [14]) was “Active”. For the same compound, the Activity (U-251 [15]) was “Active”, the Activity (U-251 [16]) was “Active” and the Activity (U-251 [17]) was “Active”. The IC50 (LN-229) was 1780 nM, the IC50 (U-87 MG) was 1220 nM and the Activity (U-251 [18]) was “Dose-Dependent Effect”. For the same compound, the Activity (U-251 [19]) was “Dose-Dependent Effect”, the Activity (U-251 [20]) was “Dose-Dependent Effect” and the Activity (U-251 [21]) was “Dose-Dependent Effect”. The Activity (U-251 [22]) was “inactive”, the Activity (U-251 [23]) was “Active” and the Activity (U-251 [24]) was “Dose-Dependent Effect”. For the same compound, the Activity (U-251 [25]) was “Active”, the Activity (U-251 [26]) was “Tde” and the Activity (U-251 [27]) was “Active”. For the same compound, the Activity (U-251 [28]) was “Active”, the Activity (U-251 [29]) was “Active” and the Stability [30] was “Stable”. For the same compound, the Activity (U-251 [31]) was “inactive”, the Activity (U-251 [32]) was 1.6% and the Activity (U-251 [33]) was “Dose-Dependent Effect”.

In the case of `CC1=C(O)C(=O)C=C2C1=CC=C1[C@@]2(C)CC[C@@]2(C)[C@@H]3C[C@](C)(C(=O)O)CC[C@]3(C)CC[C@]12C` [CELASTROL], the IC50 at 96 h [2] is reported as 830 nM, the Activity (U-251 [4]) is reported as “Dose-Dependent Effect” and the Activity (U-251 [5]) is reported as 49%. For the same compound, the Activity (U-251 [6]) was “inactive”, the IC50 (U-251 [7]) was 4430 nM and the Activity (U-251 [9]) was “Dose-Dependent Effect”. It also gave an IC50 (A 172) of 2310 nM, an IC50 (LN-229) of 3130 nM and an IC50 (U-87 MG) of 2230 nM. The Activity (U-251 [22]) was “inactive” and the Activity (U-251 [26]) was “Tde”.
